This is an account of results in patent publication US20130072532A1, “TOPICAL TRANSDERMAL DEXMEDETOMIDINE COMPOSITIONS AND METHODS OF USE THEREOF” (priority 2010, published 2013).

SMILES strings stand for the structures. Like-named read-outs stand apart in the source and are kept apart here.

Usually half-life stands for how long it takes for the measured level to halve. A low value points to fast loss.

One data set concerns α2-aderenoceptor. Conditions: selective α2-adrenoceptor agonist; cited from earlier work.
For data set [1] the following is noted: humans, cited from earlier work.
Another data set can be described thus: clinical. Conditions: human, in vivo. The text has this:
Dexmedetomidine plasma concentration-time data from clinical study # REC-10-006 were used in predicting the steady-state concentration-time profiles resulting from once-daily (QD) and twice-daily (BID) topical application of a 0.25, 0.5, and 1-gram dose. The data from the following 3 subjects were used: 1001, 1004, and 1005. The three subjects participated in the following treatment arms: Treatment A (0.25-gram dose), Treatment C (0.5-gram dose), and Treatment E (1.0-gram dose). Clinical study # REC-10-006 was a single ascending-dose study with multiple treatment arms (Treatments A, B, C, D and E). Plasma samples for drug analysis were taken at pre-dose (0 hour) and at the following specified times after dosing: 0.5, 1, 1.5, 2, 3, 4, 6, 8, 10, 12, 18, 24, 30, 36, and 48 hours. The lower limit of quantification of the bioanalytical assay was 0.02 ng/mL.
All pharmacokinetic parameters were analyzed using compartmental analysis. Dexmedetomidine plasma concentration-time data from Period 1 (REC-10-006) were used in predicting the steady-state concentration-time profiles resulting from once-daily (QD) and twice-daily (BID) topical application of 0.25-, 0.5- and 1.0-gram doses. The data used were from three subjects (Identifiers 1001, 1004, and 1005) who participated in treatment arms A (0.25-gram dose), C (0.5-gram dose), and E (1.0-gram dose). Blood samples for drug analysis were taken at pre-dose and at the following specified times after dosing: 0.25, 0.5, 0.75, 1, 1.5, 2, 2.5, 3, 4, 5, 6, 7, 8, 12, 24, 48, and 72 hours. […] Once the PK parameters were calculated and the single-dose concentrations were generated, the data were imported into WinNonlin™, Version 5.2 (WinNonlin™ Copyright ©2008, Pharsight Corporation), a nonparametric superposition was carried out to predicted the steady-state plasma concentration-time profiles resulting from QD and BID dosing.
As stated previously, the PK parameters were calculated using nonlinear-mixed-effect model using the software MonoLix 3.1. […]

The conditions of data set [2]: human subjects, buccal administration; cited from earlier work.

With `Cc1cccc([C@H](C)c2cnc[nH]2)c1C` [dexmedetomidine, 5-[(1S)-1-(2,3-dimethylphenyl)ethyl]-1H-imidazole], the “selectivity relative to that of clonidine” value in the data set on α2-aderenoceptor was “approximately 10 fold”. In addition, the figures for the “time to maximum concentration in blood” value in data set [1] (i.m. administration) and in data set [1] (transdermal administration) were 1.6 to 1.7 h and 6 h, respectively. In addition, the “period of absorption at a constant rate” value in the data set “clinical” was around 20 h. The “portion of the plasma concentrations below the quantifiable level of 0.02 ng/mL” value in “clinical” is reported as 67%. Moreover, in “clinical” (topical or ocular), the half-life was around 15 h. Besides, the “time of maximum concentration” value in data set [2] was “approximately 1.5 h”.
